Experimental data taken from PMC7463930, “Evidence Supporting an Antimicrobial Origin of Targeting Peptides to Endosymbiotic Organelles” (Cells, 2020).
No end group written: not given here.

System: Bacillus subtilis
Assay: Standard minimum inhibitory concentration broth microdilution assay
Assay type: cell-based
Description: Standard minimum inhibitory concentration broth microdilution assays in the presence of BSA/acetic acid were performed in triplicate as described in [65] using peptides chemically synthesized to ≥95% purity (Proteogenix). Dilution series are based on net peptide content, calculated by multiplying the dry weight by %N and by purity. %N is a measure of the peptide (rather than salt) fraction in the lyophilized product, while purity, provided by the manufacturer, is the fraction of the peptide with the desired sequence among all supplied peptides.
To determine the AMP-activity of TPs, we performed the symmetrical experiment. Several chemically synthesized TPs, chosen for their variable proximity to Class I HA-RAMPs (Figure S8B), were used to challenge Bacillus subtilis in a standard assay, using magainin II as a positive control (Figure 7). […] A high sensitivity was deemed a useful feature for an antimicrobial assay in this proof-of-principle experiment, since we expected TPs to have a lower activity than bona fide AMPs as they have been selected for targeting and not for impeding microbial growth over the last 1.5 By.
B. subtilis was challenged with serial dilutions of synthetic peptides (See Table S7 for sequences): the Rattus norvegicus peptide hormone cholecystokinin-22, the C. reinhardtii tSP of lumenal 16.5 kDa protein, the HA-RAMP magainin II, Neurospora crassa mTP of ATP synthase F1β subunit and C. reinhardtii cTPs from RBCA and plastocyanin (PCY1) or mTPs from cytochrome c oxidase 12 kDa subunit (COX13) and Serine HydroxylMethyl Transferase 1 (SHMT1). (A) One dilution plate out of three performed replicates is shown to illustrate how the data was obtained. Transparent wells illustrate absence of growth. Red arrows point to the minimal peptide inhibiting concentration. (B) Minimum inhibitory concentrations (MIC) for each of the three replicate plates are reported in a table. TEXT PRINTED IN THE PICTURE: (B) cck-22: MIC (μg/ml) rep 1: >1000; MIC (μg/ml) rep 2: >1000; MIC (μg/ml) rep 3: >1000 | (B) TL16-tSP: MIC (μg/ml) rep 1: >1000; MIC (μg/ml) rep 2: >1000; MIC (μg/ml) rep 3: >1000 | (B) Magainin II: MIC (μg/ml) rep 1: 4; MIC (μg/ml) rep 2: 4; MIC (μg/ml) rep 3: 4 | (B) pF1β-mTP: MIC (μg/ml) rep 1: 8; MIC (μg/ml) rep 2: 4; MIC (μg/ml) rep 3: 8 | (B) RBCA-cTP: MIC (μg/ml) rep 1: 63; MIC (μg/ml) rep 2: 63; MIC (μg/ml) rep 3: 63 | (B) COX13-mTP: MIC (μg/ml) rep 1: 250; MIC (μg/ml) rep 2: 250; MIC (μg/ml) rep 3: 250 | (B) PCY1-cTP: MIC (μg/ml) rep 1: 1000; MIC (μg/ml) rep 2: 1000; MIC (μg/ml) rep 3: 1000 | (B) SHMT1-mTP: MIC (μg/ml) rep 1: 31; MIC (μg/ml) rep 2: 31; MIC (μg/ml) rep 3: 31

cholecystokinin-22 (NLQGLDPSHRISDRDYMGWMDF; ends and bridges not checked; UniProt P01355 82-103, looked up) [cck-22, Rattus norvegicus small peptide hormone cholecystokinin-22, used as negative control]
inhibited growth (in words) (B. subtilis challenged with chemically synthesized peptides, negative controls): neither
MIC (μg/ml) rep 1 (B. subtilis, broth microdilution in the presence of BSA/acetic acid, serial dilutions based on net peptide content, peptides synthesized to ≥95% purity, replicate plate 1 of 3): > 1000 µg/mL
MIC (μg/ml) rep 2 (B. subtilis, broth microdilution in the presence of BSA/acetic acid, serial dilutions based on net peptide content, peptides synthesized to ≥95% purity, replicate plate 2 of 3): > 1000 µg/mL
MIC (μg/ml) rep 3 (B. subtilis, broth microdilution in the presence of BSA/acetic acid, serial dilutions based on net peptide content, peptides synthesized to ≥95% purity, replicate plate 3 of 3): > 1000 µg/mL
